Source: patent US20170274032A1, “PHARMACEUTICAL COMPOSITIONS FOR TREATING ANXIETY” (Beijing Wonner Biotech. Ltd. Co., priority 2007, published 2017)

Key:
Kunming (KM) mice [1] = experiment: Mouse light-dark transition experiment (Experiment 2); assay type: in vivo
Experimental: 2.1 Experimental animals: Kunming (KM) mice, male, 24˜26 g of body weight, secondary, are provided by the Experimental Animal Science Department of Capital Medical University, Beijing.
2.2 Experimental pharmaceuticals: The pharmaceutical of Embodiment 4 is provided by Beijing Wonner Biotech. Ltd. Co., and Diazepam is the product of Tianjin Jinhuei Amino Acid Co. Ltd.
2.3 Experimental equipment: Self-made light-dark transition box.
2.4 Dose designs: 1. High dose of Embodiment 4 (80 mg/kg/d); 2. middle dose of Embodiment 4 (40 mg/kg/d); and 3. low dose of Embodiment 4 (20 mg/kg/d).
2.5.1 Group division and administration of drug: The mice are grouped randomly as 5 groups, and 10 mice are in each group. 1. High dose of Embodiment 4 (80 mg/kg); 2. middle dose of Embodiment 4 (40 mg/kg); 3. low dose of Embodiment 4 (20 mg/kg); 4. […]
(§1) Mouse light-dark transition test: The dark chamber occupies one third of the light-dark transition chamber (44 cm×21 cm×21 cm), and the top is capped. […] The times that the mouse enters into the dark chamber and returns to the light chamber within 10 minutes are determined, and the times thereof are the index for evaluating the anti-anxiety function of the drugs.
2.5.3 Statistic calculation: The experimental data are represented as X±SD, and the experimental result is calculated as one-way ANOVA by SPSS 11.5 statistic software.

Kunming (KM) mice [2] = experiment: Mouse light-dark transition experiment (Experiment 1); assay type: in vivo
Description: 1.1 Experimental animals: Kunming (KM) mice, male, 24˜26 g of body weight, secondary, are provided by the Experimental Animal Science Department of Capital Medical University, Beijing.
1.2 Experimental pharmaceuticals: The pharmaceutical of Embodiment 1 is provided by Beijing Wonner Biotech. Ltd. Co., and Diazepam is the product of Tianjin Jinhuei Amino Acid Co. Ltd.
1.3 Experimental equipment: Self-made light-dark transition box.
1.5.1 Group division and administration of drug: The mice are grouped randomly as 5 groups, and 10 mice are in each group. 1. High dose of Embodiment 1 (80 mg/kg); 2. middle dose of Embodiment 1 (40 mg/kg); 3. low dose of Embodiment 1 (20 mg/kg); 4. Diazepam (2.5 mg/kg); and 5. physiological saline (normal saline, NS). […]
as §1
1.5.3 Statistic calculation: The experimental data are represented as X±SD, and the experimental result is calculated as one-way analysis of variance (one-way ANOVA) by SPSS 11.5 statistic software.

[3] = in the human body; cited from earlier work
[4] = 2.5 mg/kg, fed into the stomach once daily for 7 days, test 1 hour after last administration, within 10 minutes, X±SD, 10 mice

Row | SMILES | Times of passing from dark chamber to light chamber (Kunming (KM) mice [1]; [4]) | Effect on the times that the mouse passes from the dark chamber to the light chamber, in words (Kunming (KM) mice [1]; compared with normal saline, high, middle and low doses of Embodiment 4, Diazepam 2.5 mg/kg) | Times of passing from dark chamber to light chamber (Kunming (KM) mice [2]; [4]) | Effect on the times that the mouse passes from the dark chamber to the light chamber, in words (Kunming (KM) mice [2]; compared with physiological saline, high, middle and low doses of Embodiment 1, Diazepam 2.5 mg/kg) | Efficiency of conversion of glycyrrhizic acid to glycyrrhetinic acid [3] [%]
1 | CN1C(=O)CN=C(c2ccccc2)c2cc(Cl)ccc21 [Diazepam] | 11.7 ± 4.47 | significantly increase | 11.3 ± 4.54 | significantly increase | 
2 | CC1(C)[C@@H](O[C@H]2O[C@H](C(=O)O)[C@@H](O)[C@H](O)[C@H]2O[C@@H]2O[C@H](C(=O)O)[C@@H](O)[C@H](O)[C@H]2O)CC[C@]2(C)[C@H]3C(=O)C=C4[C@@H]5C[C@@](C)(C(=O)O)CC[C@]5(C)CC[C@@]4(C)[C@]3(C)CC[C@@H]12 [glycyrrhizic acid] |  |  |  |  | ~100
